# From patent US7879887B2, “α-amino acid derivatives and medicaments containing the same as an active ingredient” (Nissan Chemical Industries, Ltd., priority 2006, dated 2011)
# Tests used:
# [1] = system: colon carcinoma cell line SW620; assay: Cell proliferation inhibitory activity, SW620; type: cell-based, human; details: cells counted 4 days later with Cell Counting Kit-8
# Procedure: (§1) Evaluations were carried out using colon carcinoma cell line SW620 (Cat. No. CCL-227), lung carcinoma cell line NCI-H460 (Cat. No. HTB-177), prostate cancer cell line DU 145 (Cat. No. HTB-81), breast cancer cell line MDA-MB-231 (Cat. No. HTB26) and leukemia cell line KG-1a (Cat. No. CCL-246.1) purchased from ATCC, pancreatic cancer cell line MIAPaCa-2 (Cat. No. CRL-1420) purchased from Dainippon Pharmaceutical, and ovarian cancer cell line IGROV1 received from the Netherland Cancer Institute. The cells were cultured under the conditions recommended by the supplier for each cell line, or with respect to IGROV1, according to the method described in Cancer Res. 59: 4559-4563, 1999. Cells suspended in media were added to solutions containing the test substances at various concentrations followed by culturing in a 5% CO2 incubator at 37° C. The numbers of cells were counted 4 days later with the Cell Counting Kit-8. IC50 values were calculated by assigning measured values in the case of not containing a test substance to an inhibition of 0%, and assigning measured values in the case of not containing a test substance or cells to an inhibition of 100%.
# [2] = system: leukemia cell line KG-1a; assay: Cell proliferation inhibitory activity, KG-1a; type: cell-based; details: cells counted 4 days later with Cell Counting Kit-8
# Procedure: as §1
# [3] = system: ovarian cancer cell line IGROV1; assay: Cell proliferation inhibitory activity, IGROV1; type: cell-based; details: cells counted 4 days later with Cell Counting Kit-8
# Procedure: as §1
# [4] = target: T1, CDK3/Cyclin E complex (Homo sapiens, UniProt Q00526); assay: In vitro kinase assay, CDK3/Cyclin E complex; type: biochemical; details: recombinant protein (Upstate); read-out: CDK3/cyclinE IC50
# T1 construct: purchased Upstate Inc. 14-487
# T1 sequence (Q00526 whole entry): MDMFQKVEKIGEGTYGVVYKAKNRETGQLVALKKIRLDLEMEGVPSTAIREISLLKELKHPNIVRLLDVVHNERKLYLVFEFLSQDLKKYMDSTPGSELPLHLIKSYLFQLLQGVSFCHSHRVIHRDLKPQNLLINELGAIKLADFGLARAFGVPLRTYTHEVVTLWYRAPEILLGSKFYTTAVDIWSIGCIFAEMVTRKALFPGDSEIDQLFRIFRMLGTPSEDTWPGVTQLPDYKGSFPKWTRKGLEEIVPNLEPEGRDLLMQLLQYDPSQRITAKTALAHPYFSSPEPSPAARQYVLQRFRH
# T1 sequence (P24864 whole entry partner): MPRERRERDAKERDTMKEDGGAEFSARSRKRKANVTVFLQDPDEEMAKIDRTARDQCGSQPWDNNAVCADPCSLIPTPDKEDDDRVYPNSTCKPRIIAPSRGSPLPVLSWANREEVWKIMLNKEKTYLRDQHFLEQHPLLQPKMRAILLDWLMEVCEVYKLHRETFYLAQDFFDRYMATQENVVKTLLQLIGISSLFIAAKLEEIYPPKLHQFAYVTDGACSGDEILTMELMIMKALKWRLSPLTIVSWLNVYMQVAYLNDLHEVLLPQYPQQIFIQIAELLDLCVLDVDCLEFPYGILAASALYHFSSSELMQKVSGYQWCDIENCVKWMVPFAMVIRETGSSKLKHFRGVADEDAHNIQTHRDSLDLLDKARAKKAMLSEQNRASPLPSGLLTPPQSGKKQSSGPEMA
# Procedure: (§2) Inhibitory activity against Aurora A, CDK1/Cyclin B complex, CDK2/Cyclin E complex and CDK3/Cyclin E complex were measured by in vitro kinase assay using recombinant proteins.
# [5] = target: CDK2/Cyclin E complex (Homo sapiens, UniProt P24941); assay: In vitro kinase assay, CDK2/Cyclin E complex; type: biochemical; details: recombinant protein (Upstate); read-out: CDK2/cyclinE IC50
# Procedure: as §2
# [6] = system: prostate cancer cell line DU 145; assay: Cell proliferation inhibitory activity, DU 145; type: cell-based, human; details: Homo sapiens, 96 h, cells counted 4 days later with Cell Counting Kit-8
# Procedure: as §1
# [7] = target: T2, recombinant human βARK1 (Homo sapiens, UniProt P25098); assay: Inhibitory activity against βARK1 (33P phosphorylation of synthetic peptide); type: biochemical; details: recombinant human βARK1, 60 minutes at room temperature
# T2 construct: made in house; host or cells: Sf-9 insect cells (baculovirus, pBacPAK8)
# T2 sequence (P25098 1-689): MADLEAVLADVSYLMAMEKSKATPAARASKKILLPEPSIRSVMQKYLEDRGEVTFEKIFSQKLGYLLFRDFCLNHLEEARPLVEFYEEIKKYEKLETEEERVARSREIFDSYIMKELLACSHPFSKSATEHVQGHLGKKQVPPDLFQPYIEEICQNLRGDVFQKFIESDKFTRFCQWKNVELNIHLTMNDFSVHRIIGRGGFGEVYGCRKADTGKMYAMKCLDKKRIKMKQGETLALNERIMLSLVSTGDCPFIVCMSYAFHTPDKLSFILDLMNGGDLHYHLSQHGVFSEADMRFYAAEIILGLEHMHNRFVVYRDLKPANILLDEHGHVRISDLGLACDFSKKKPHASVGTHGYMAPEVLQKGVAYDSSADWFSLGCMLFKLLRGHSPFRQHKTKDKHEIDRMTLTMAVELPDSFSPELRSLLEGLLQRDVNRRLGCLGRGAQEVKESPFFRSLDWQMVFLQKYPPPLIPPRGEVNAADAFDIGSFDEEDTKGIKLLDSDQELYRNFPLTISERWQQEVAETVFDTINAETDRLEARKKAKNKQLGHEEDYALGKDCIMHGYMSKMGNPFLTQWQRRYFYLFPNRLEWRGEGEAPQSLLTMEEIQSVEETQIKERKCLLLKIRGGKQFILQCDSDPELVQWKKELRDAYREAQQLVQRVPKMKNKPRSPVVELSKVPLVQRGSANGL
# Procedure: Human βARK1 was amplified by PCR based on the base sequence of human βARK1 mRNA registered in GenBank (Accession No. M80776) using a human leukocyte cDNA library (Gibco BRL Cat. No. 10421-022) as a template. The amplified cDNA fragment was inserted into a pBacPAK8 vector (Clontech) to construct a plasmid.
# Recombinant human βARK1 was expressed using the BacPAK Baculovirus Expression System (Clontech, Cat. No. K1601-1). 1×10^6 Sf-9 cells were adhered to a 35 mm dish in 2.5 mL of TMN-FH Insect Medium containing 10 vol % FBS (Pharminogen, Cat. No. PM-21227M) and cultured overnight at 27° C. On the following day, the medium was removed and 500 ng of the above plasmid, BacPAK6 viral DNA cleaved with Bsu36I (5 μL) and 1.5 mL of the same medium mixed with 4 μL of Bacfectin were added followed by culturing for 5 hours, further adding 1.5 mL of medium and subsequently culturing for 5 days. […] The culture supernatant after 5 days was recovered and a plaque assay was carried out to isolate single plaques. These were then infected into Sf-9 cells and the resulting culture supernatant was designated as Passage 1 (1−3×10^11 pfu/mL). Passage 1 was added to 3×10^7 Sf-9 cells to a multiplicity of infection (MOI) of 0.1 (pfu/cell), suspension culturing was carried out for 5 days using a spinner flask, and the resulting culture supernatant was designated as Passage 2 (4×10^10 pfu/mL) and used as a viral liquid for large-volume expression.
# Sf-9 cells at 3×10^9 cells/200 mL were infected by adding Passage 2 to an MOI of 100 followed by addition of medium to bring to a liquid volume of 2 L and further culturing for 3 days. After recovering the cells by centrifugation and washing three times with PBS, the cells were suspended in 100 mL of Lysis Buffer (20 mmol/L HEPES-HCl (pH 7.2), 5 mmol/L EDTA, 3 mmol/L phenylmethylsulfonyl fluoride (PMSF)). After lysing the cells by ultrasonic treatment at low temperature, the supernatant was recovered by centrifuging (45,000×g, 15 minutes) (sup1). NaCl was added to the resulting supernatant to a final concentration of 250 mmol/L followed by ultracentrifugation (300,000×g, 60 minutes) and using the subsequent supernatant as a crude cell extract (sup2).
# Purification was carried out with reference to the literature (Benovic, J. L., Methods Enzymol. 1991; 200: 351-362; Kim, C. M. et al., Receptor 1993; 3: 39-55; Sohlemann, P. et al., FEBS Letters 1993; 324: 59-62). The crude cell extract was accurately brought to a volume of 400 mL with Buffer C (20 mmol/L HEPES-HCl (pH 7.2), 5 mmol/L EDTA, 0.02 vol % Triton X-100) followed by loading onto a 50 mL SP-Sepharose FF (Amersham Pharmacia Biotech) column equilibrated with Buffer C. […] ETA was carried out on each fraction using anti-GRK2 antibody (Santa-Cruz Cat. No. SC-562) and the positive fractions were collected (GRK2=βARK1). This was then diluted three-fold with Buffer C and loaded on a 5 mL HiTrap Heparin column (Amersham Pharmacia Biotech) column equilibrated with Buffer C. After washing the column with Wash Buffer (100 mmol/L NaCl, Buffer C), the column was eluted with an NaCl concentration gradient (100 to 600 mmol/L NaCl for 100 minutes, flow rate: 1 mL/min). The positive fractions as determined by ETA were collected and stored in a freezer at −80° C.
# A synthetic peptide having an amino acid sequence of biotinated-[…] was used in accordance with a previous report (Chen, C. Y. et al., J. Biol. Chem. 1993; 268: 7825-7831). This synthetic peptide can also be synthesized with reference to known synthesis methods (for example, Chen, C. Y. et al., J. Biol. Chem. 1993; 268: 7825-7831, Biochemistry 1991; 30: 5118-5125). 2 μl of a DMSO solution in which the test compound was diluted to as to be […] the final concentration was dispensed into a 96-well plate (round bottom) (Falcon 351190) (final concentration: 4 vol % DMSO). […]
# [8] = system: lung carcinoma cell line NCI-H460; assay: Cell proliferation inhibitory activity, NCI-H460; type: cell-based; details: Homo sapiens, 96 h, cells counted 4 days later with Cell Counting Kit-8
# Procedure: as §1
# [9] = target: T3, Aurora A (Homo sapiens, UniProt O14965); assay: In vitro kinase assay, Aurora A; type: biochemical; details: recombinant protein (Upstate)
# T3 construct: purchased Upstate Inc. 14-511
# T3 sequence (O14965 1-403): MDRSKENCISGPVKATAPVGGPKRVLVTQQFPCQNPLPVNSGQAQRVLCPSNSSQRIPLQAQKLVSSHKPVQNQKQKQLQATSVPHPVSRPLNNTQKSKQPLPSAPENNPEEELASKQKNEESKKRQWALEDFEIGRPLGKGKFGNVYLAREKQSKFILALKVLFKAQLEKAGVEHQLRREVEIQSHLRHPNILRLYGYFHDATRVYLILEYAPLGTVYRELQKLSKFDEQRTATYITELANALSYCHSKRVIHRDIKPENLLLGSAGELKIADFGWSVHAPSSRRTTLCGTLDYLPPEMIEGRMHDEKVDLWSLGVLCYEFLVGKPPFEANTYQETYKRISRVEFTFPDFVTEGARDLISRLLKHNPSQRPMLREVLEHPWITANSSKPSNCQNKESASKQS
# Procedure: (§3) Inhibitory activity against Aurora A, CDK1/Cyclin B complex, CDK2/Cyclin E complex and CDK3/Cyclin E complex were measured by in vitro kinase assay using recombinant proteins. The assays were carried out by using recombinant proteins (Upstate Inc.) for Aurora A, CDK1/Cyclin B complex, CDK2/Cyclin E complex and CDK3/Cyclin E complex (respective cat. nos. 14-511, 14-450, 14-448 and 14-487), in accordance with the procedure described in the product instructions thereof. The 50% inhibitory concentrations (IC50 values) were calculated by assigning measured values in the case of not containing a test compound to an inhibition of 0%, and assigning measured values in the case of not containing a test compound and enzyme to an inhibition of 100%.
# [10] = system: breast cancer cell line MDA-MB-231; assay: Cell proliferation inhibitory activity, MDA-MB-231; type: cell-based; details: Homo sapiens, 96 h, cells counted 4 days later with Cell Counting Kit-8
# Procedure: as §1
# [11] = target: T4, CDK1/Cyclin B complex (Homo sapiens, UniProt P06493); assay: In vitro kinase assay, CDK1/Cyclin B complex; type: biochemical; details: recombinant protein (Upstate)
# T4 construct: purchased Upstate Inc. 14-450
# T4 sequence (P06493 whole entry): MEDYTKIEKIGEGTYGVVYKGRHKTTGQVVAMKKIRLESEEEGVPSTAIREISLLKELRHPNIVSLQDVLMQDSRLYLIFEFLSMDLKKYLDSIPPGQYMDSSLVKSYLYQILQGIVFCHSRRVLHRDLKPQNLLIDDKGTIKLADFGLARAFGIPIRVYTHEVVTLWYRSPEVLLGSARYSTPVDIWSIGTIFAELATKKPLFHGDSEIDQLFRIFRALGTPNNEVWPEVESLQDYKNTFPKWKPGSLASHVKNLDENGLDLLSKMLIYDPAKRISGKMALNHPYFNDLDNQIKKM
# T4 sequence (P14635 whole entry partner): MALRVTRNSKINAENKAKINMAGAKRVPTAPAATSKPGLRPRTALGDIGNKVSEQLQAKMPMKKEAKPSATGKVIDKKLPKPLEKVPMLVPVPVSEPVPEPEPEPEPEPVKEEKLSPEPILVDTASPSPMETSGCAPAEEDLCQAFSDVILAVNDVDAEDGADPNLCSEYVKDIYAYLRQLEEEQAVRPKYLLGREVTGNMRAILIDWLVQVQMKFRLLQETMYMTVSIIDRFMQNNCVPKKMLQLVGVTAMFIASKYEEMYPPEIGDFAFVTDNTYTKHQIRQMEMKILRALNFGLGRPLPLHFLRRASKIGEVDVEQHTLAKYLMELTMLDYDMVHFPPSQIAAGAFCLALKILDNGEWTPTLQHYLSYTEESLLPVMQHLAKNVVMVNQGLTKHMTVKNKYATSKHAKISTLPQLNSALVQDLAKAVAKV
# Procedure: as §3
IC50 [1] [nM],IC50 [2] [nM],IC50 [3] [nM],IC50 [7] [nM],Structure (SMILES),IC50 [4] [nM],IC50 [5] [nM],"IC50 ([1]; Homo sapiens, SW-620, 96 h) [nM]","IC50 ([2]; Homo sapiens, 96 h) [nM]","IC50 ([3]; Homo sapiens, IGROV-1, 96 h) [nM]",IC50 [6] [nM],IC50 [8] [nM],IC50 [9] [nM],IC50 [10] [nM],IC50 [11] [nM]
1600,< 100,4600,–,COc1cccc(NCC(=O)Nc2nc3ccc4[nH]ncc4c3s2)c1 [compound 1],–,–,–,–,–,–,–,–,–,–
–,–,–,–,Nc1cccc(NCC(=O)Nc2nc3ccc4[nH]ncc4c3s2)c1 [compound 11],355,192,1600,< 100,4800,–,–,–,–,–
–,–,–,–,COC(=O)Nc1cc(NC(C)(C)C(=O)Nc2nc3ccc4[nH]ncc4c3s2)ccc1Cl [compound 50],–,435,2500,< 100,4800,–,–,426,–,–
–,–,–,–,CC(C)(Nc1ccc(Cl)c(NS(C)(=O)=O)c1)C(=O)Nc1nc2c(C(F)(F)F)cc3[nH]ncc3c2s1 [compound 84],44,44,1600,200,–,3400,3200,247,4800,205
–,–,–,–,CNC(=O)Nc1cc(NC(C)(C)C(=O)Nc2nc3c(C(F)(F)F)cc4[nH]ncc4c3s2)ccc1Cl [compound 90],70,160,1300,–,–,1900,2500,–,4400,365
–,–,–,12,CC(C)(Nc1ccc(Cl)c(-n2cc[nH]c2=O)c1)C(=O)Nc1nc2c(C(F)(F)F)cc3[nH]ncc3c2s1 [compound 97],279,–,–,–,–,–,–,–,–,–
–,–,–,–,O=C(Nc1nc2ccc3[nH]ncc3c2s1)C1(Nc2ccc(Cl)cc2)CCC1 [compound 114],174,83,700,< 100,–,–,–,–,4700,–
–,–,–,–,O=C(Nc1nc2ccc3[nH]ncc3c2s1)C1(Nc2ccc(Cl)cc2)CCCCC1 [compound 116],412,245,1000,200,4900,3400,–,–,–,486
–,–,–,7.9,CC(C)(Nc1ccc(Cl)c(C(=O)NCCC(=O)O)c1)C(=O)Nc1nc2c(C(F)(F)F)cc3[nH]ncc3c2s1 [compound 139],70,168,–,–,–,–,–,106,–,238
–,–,–,7.7,CC(C)(Nc1ccc(Cl)c(C(=O)NCC(=O)O)c1)C(=O)Nc1nc2c(C(F)(F)F)cc3[nH]ncc3c2s1 [compound 145],134,194,–,–,–,–,–,76,–,259

Structure (SMILES),IC50 [1] [nM],IC50 [2] [nM],IC50 [3] [nM],IC50 [7] [nM],IC50 [4] [nM],IC50 [5] [nM],"IC50 ([1]; Homo sapiens, SW-620, 96 h) [nM]","IC50 ([2]; Homo sapiens, 96 h) [nM]","IC50 ([3]; Homo sapiens, IGROV-1, 96 h) [nM]",IC50 [6] [nM],IC50 [8] [nM],IC50 [9] [nM],IC50 [10] [nM],IC50 [11] [nM]
CC(=O)Nc1cc(NC(C(=O)Nc2nc3c(C(F)(F)F)cc4[nH]ncc4c3s2)c2ccccc2)ccc1Cl (stereo not drawn) [compound 30],–,–,–,9.8,128,172,1800,–,–,2700,4100,–,–,–
CCC(=O)Nc1cc(NC(C)(C)C(=O)Nc2nc3c(C(F)(F)F)cc4[nH]ncc4c3s2)ccc1Cl [compound 56],–,–,–,3.2,304,390,1100,400,–,2500,2500,–,–,–
